Experimental findings from patent US8329686B2, “Isatin analogues and uses therefor” (Washington University, priority 2006, dated 2012) are described below.

Common to all, as to assay type: biochemical
In test [1] the target is T1, caspase 7 (Homo sapiens, UniProt P55210).
T1 construct: purchased Sigma-Aldrich (St. Louis, Mo.)
T1 sequence (P55210 24-198 limits assumed): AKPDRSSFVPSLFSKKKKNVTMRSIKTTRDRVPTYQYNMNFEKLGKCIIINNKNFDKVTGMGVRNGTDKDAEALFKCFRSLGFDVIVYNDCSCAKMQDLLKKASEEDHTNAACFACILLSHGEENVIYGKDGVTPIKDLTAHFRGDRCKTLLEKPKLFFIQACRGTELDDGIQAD
T1 sequence (P55210 207-303 limits assumed): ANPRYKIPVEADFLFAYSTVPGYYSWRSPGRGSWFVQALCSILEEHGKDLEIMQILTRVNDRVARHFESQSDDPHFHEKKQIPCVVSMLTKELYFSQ
In words: Enzyme inhibition assay, caspase 7 (fluorogenic Ac-DEVD-AMC).

In test [2] the target is T2, caspase 8 (Homo sapiens, UniProt Q14790).
T2 construct: purchased Sigma-Aldrich (St. Louis, Mo.)
T2 sequence (Q14790 217-374 limits assumed): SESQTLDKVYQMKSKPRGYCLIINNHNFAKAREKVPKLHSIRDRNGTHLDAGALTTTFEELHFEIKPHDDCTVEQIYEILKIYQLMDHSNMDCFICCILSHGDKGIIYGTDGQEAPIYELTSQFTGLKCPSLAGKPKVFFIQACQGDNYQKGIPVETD
T2 sequence (Q14790 385-479 limits assumed): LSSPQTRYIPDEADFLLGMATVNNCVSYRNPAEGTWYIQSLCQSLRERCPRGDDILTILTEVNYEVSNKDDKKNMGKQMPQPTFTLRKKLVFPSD
Nature of the test: Enzyme inhibition assay, caspase 8 (fluorogenic Ac-IETD-AMC).
Protocol: (§1) Enzyme Assays. Inhibition of recombinant human caspase-3 and other caspases by the isatin analogues was assessed using a fluorometric assay by measuring the accumulation of a fluorogenic product, 7-amino-4-methylcoumarin (7-AMC).
(§2) Enzyme Inhibition Assays. Recombinant human caspases (3, 6, 7, and 8) and their peptide-specific substrates (Ac-DEVDAMC, Ac-VEID-AMC, Ac-DEVD-AMC, and Ac-IETD-AMC, respectively) were purchased from Sigma-Aldrich (St. Louis, Mo.) with the exception of caspase 1 and its substrate (Ac-YVAD-AMC), which were obtained from BIOMOL Research Laboratories (Plymouth Meeting, Pa.). The enzymatic activity of caspases was determined by measuring the accumulation of the fluorogenic product 7-amino-4-methylcoumarin (AMC). All assays were prepared in 96-well format at a volume of 210 μL per well and consisted of 100 mM Na+ HEPES (pH 7.4), 10% sucrose, 100 mM NaCl, 0.1% CHAPS, 5 mM 2-mercaptoethanol, 2 mM EDTA, 10 μM Ac-YVAD-AMC (caspase 1); 20 mMNa^+ HEPES (pH 7.4), 10% sucrose, 100 mMNaCl, 0.1% CHAPS, 2 mM EDTA, 10 μM Ac-DEVD-AMC (caspase 3); 20 mM Na^+ HEPES (pH 7.4), 10% sucrose, 100 mM NaCl, 0.1% CHAPS, 2 mM EDTA, 10 μM Ac-VEID-AMC (caspase 6); 20 mM Na+ HEPES (pH 7.4), 100 mM NaCl, 10% sucrose, 0.1% CHAPS, 5 mM 2-mercaptoethanol, 2 mM EDTA, 10 μM Ac-DEVD-AMC (caspase 7); 20 mM Na+ HEPES (pH 7.4), 10% sucrose, 100 mM NaCl, 0.1% CHAPS, 2 mM EDTA, 10 μM Ac-IETD-AMC (caspase 8).
(§3) Recombinant caspases were first assayed to determine the optimal concentration for each experiment. Optimal concentrations were based in the linear range of the enzyme activation curves. Peptide inhibitors with known IC50 values were tested together with the compounds as a control for each caspase assay. […] Peptide and nonpeptide inhibitors were dissolved in DMSO, and a 2 serial dilution was performed prior to screening in order to obtain desired concentrations. 10 μL was added to each well containing 100 μL caspase solution and allowed to incubate on ice for 30 min. […] The final concentration of DMSO in all wells was 5% of the total volume. In caspase-1 and caspase-7 assays, 10 mM 2-mercaptoethanol was added to the substrate solution for full activation of the enzymes.
(§4) Compounds were tested in duplicate, and IC50 curves were calculated for all inhibitors assayed. Final IC50s were the average of three independent experiments.

Test [3] addresses T3, caspase 1 (Homo sapiens, UniProt P29466).
T3 construct: purchased BIOMOL Research Laboratories (Plymouth Meeting, Pa.)
T3 sequence (P29466 120-297 limits assumed): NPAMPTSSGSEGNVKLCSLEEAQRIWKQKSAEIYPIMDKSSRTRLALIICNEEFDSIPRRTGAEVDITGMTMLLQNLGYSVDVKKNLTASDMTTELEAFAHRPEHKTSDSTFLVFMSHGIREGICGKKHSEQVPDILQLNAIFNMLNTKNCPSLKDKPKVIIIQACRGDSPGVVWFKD
T3 sequence (P29466 317-404 limits assumed): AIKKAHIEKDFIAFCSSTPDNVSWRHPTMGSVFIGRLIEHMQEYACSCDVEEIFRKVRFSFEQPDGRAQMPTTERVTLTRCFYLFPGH
Nature of the test: Enzyme inhibition assay, caspase 1 (fluorogenic Ac-YVAD-AMC).

The target in test [4] is T4, caspase-3 (Homo sapiens, UniProt P42574).
T4 construct: purchased Sigma-Aldrich (St. Louis, Mo.)
T4 sequence (P42574 29-175 limits assumed): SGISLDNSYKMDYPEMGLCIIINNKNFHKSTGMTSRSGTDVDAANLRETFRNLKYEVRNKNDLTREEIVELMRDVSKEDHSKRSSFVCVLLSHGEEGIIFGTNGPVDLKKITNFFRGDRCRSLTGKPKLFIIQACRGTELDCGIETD
T4 sequence (P42574 176-277 limits assumed): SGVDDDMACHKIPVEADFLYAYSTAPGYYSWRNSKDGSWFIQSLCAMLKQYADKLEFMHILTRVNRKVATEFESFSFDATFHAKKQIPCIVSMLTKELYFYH
Nature of the test: Enzyme inhibition assay, caspase 3 (fluorogenic Ac-DEVD-AMC).
Protocol: as §1, §2, §3, §4

In test [5] the target is T5, caspase 6 (Homo sapiens, UniProt P55212).
T5 construct: purchased Sigma-Aldrich (St. Louis, Mo.)
T5 sequence (P55212 24-179 limits assumed): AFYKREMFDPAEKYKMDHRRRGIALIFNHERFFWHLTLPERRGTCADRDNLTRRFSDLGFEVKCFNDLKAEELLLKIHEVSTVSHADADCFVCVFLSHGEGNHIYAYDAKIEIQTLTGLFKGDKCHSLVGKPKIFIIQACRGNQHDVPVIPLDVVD
T5 sequence (P55212 194-293 limits assumed): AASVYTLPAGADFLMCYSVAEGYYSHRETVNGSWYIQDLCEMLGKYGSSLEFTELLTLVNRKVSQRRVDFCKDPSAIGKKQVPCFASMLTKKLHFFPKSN
Nature of the test: Enzyme inhibition assay, caspase 6 (fluorogenic Ac-VEID-AMC).

[6] abbreviates: Table 2, read-out: IC50 (nM) Caspase 7.
The mark [7] stands for this setting: Table 1, read-out: IC50 (nM) Caspase 8.
The mark [8] stands for this setting: Table 2, read-out: IC50 (nM) Caspase 8.
The mark [9] stands for this setting: Table 1, read-out: IC50 (nM) Caspase 1.
Where [10] appears, read: Table 2, read-out: IC50 (nM) Caspase 1.
Setting [11] is: Table 4, read-out: IC50 (nM) caspase-3.
The mark [12] stands for this setting: Table 4, read-out: IC50 (nM) caspase-7.
Setting [13] is: Table 6, read-out: IC50 (nM) caspase-3.
Where [14] appears, read: Table 6, read-out: IC50 (nM) caspase-6.
The mark [15] stands for this setting: Table 6, read-out: IC50 (nM) caspase-1.
Setting [16] is: Table 6, read-out: IC50 (nM) caspase-7.
The mark [17] stands for this setting: Table 6, read-out: IC50 (nM) caspase-8.
The mark [18] stands for this setting: Table 7, read-out: IC50 (nM) Casp-8.
Setting [19] is: Table 7, read-out: IC50 (nM) Casp-1.
Where [20] appears, read: Table 2, read-out: IC50 (nM) Caspase 3.

Read-outs that look alike come from different tables or passages of the source. Residues, ends and D or L forms follow the SMILES beside them.

In general, IC50 refers to the midpoint of a concentration-inhibition curve. Turning to `CC(=O)N[C@@H](CC(=O)O)C(=O)N[C@@H](CCC(=O)O)C(=O)N[C@H](C(=O)N[C@H](C=O)CC(=O)O)C(C)C` [Ac-DEVD-CHO, reference compound], the IC50 is 8.5 ± 1 nM in test [1] (Table 1, read-out: IC50 (nM) Caspase 7) and 8 ± 1 nM in test [1] (setting [6]).

For `CC[C@H](C)[C@H](NC(C)=O)C(=O)N[C@@H](CCC(=O)O)C(=O)N[C@H](C(=O)N[C@H](C=O)CC(=O)O)[C@@H](C)O` [Ac-IETD-CHO, reference compound] (Ac-IETD-aldehyde), the IC50 in test [2] (setting [7]) is 4.7 ± 0.9 nM; in test [2] (setting [8]), 4 ± 0.1 nM.

As for `CC(=O)N[C@@H](Cc1ccc(O)cc1)C(=O)N[C@H](C(=O)N[C@@H](C)C(=O)N[C@H](C=O)CC(=O)O)C(C)C` [Ac-YVAD-CHO, reference compound], the IC50 in test [3] (setting [9]) and in test [3] (setting [10]) was 8.1 ± 2.1 nM throughout.

For `O=C1Nc2ccc(S(=O)(=O)N3CCC[C@H]3COc3ccccc3)cc2C1=O` [Compound 10, (S)-5-(2-Phenoxymethyl-pyrrolidine-1-sulfonyl)-1H-indole-2,3-dione], the results for the IC50 in test [4] (setting [11]) and in test [1] (setting [12]) were 240 ± 10 nM and 540 ± 56.6 nM, respectively.

Turning to `O=C1C(=O)N(Cc2ccc(O)cc2)c2ccc(S(=O)(=O)N3CCC[C@H]3COc3ccccc3)cc21` [Compound 11f, (S)-1-(4-Hydroxybenzyl)-5-(2-phenoxymethyl-pyrrolidine-1-sulfonyl)-1H-indole-2,3-dione], the IC50 in test [4] (setting [11]) amounted to 13.5 ± 2.4 nM; in test [1] (setting [12]), 44 ± 0.1 nM.

As to `O=C1C(=O)N(Cc2ccc(F)nc2)c2ccc(S(=O)(=O)N3CCC[C@H]3COc3ccccc3)cc21` [Compound 11g, (S)-1-(6-Fluoropyridin-3-yl-methyl)-5-(2-phenoxymethylpyrrolidine-1-sulfonyl)-1H-indole-2,3-dione], the IC50 in test [4] (setting [11]) amounted to 10.3 ± 1.5 nM; in test [1] (setting [12]) it was 14.5 ± 0.9 nM.

For `O=C1Nc2ccc(S(=O)(=O)N3CCCC3COc3cccnc3)cc2C1=O` (stereo not drawn) [Compound 20, 5-(2-(Pyridin-3-yl-oxymethyl)-pyrrolidine-1-sulfonyl)-1H-indole-2,3-dione], the IC50 is 58.3 ± 7.6 nM in test [4] (setting [13]); over 50000 nM in test [2]; over 5000 nM in test [5] (setting [14]); over 5000 nM in test [3] (setting [15]); 215 ± 49.5 nM in test [1] (setting [16]).

Turning to `CN1C(=O)C(=O)c2cc(S(=O)(=O)N3CCCC3COc3cccnc3)ccc21` (stereo not drawn) [Compound 21a, 1-Methyl-5-(2-(pyridin-3-yl-oxymethyl)-pyrrolidine-1-sulfonyl)-1H-indole-2,3-dione], the IC50 is 23.3 ± 3.1 nM in test [4] (IC50 (nM) caspase-3, Table 6); over 50000 nM in test [2]; over 5000 nM in test [5] (setting [14]); over 10000 nM in test [3] (setting [15]); 94.9 ± 21.6 nM in test [1] (setting [16]).

Take `O=C1C(=O)N(Cc2ccccc2)c2ccc(S(=O)(=O)N3CCCC3COc3cccnc3)cc21` (stereo not drawn) [Compound 21b, 1-Benzyl-5-(2-(pyridin-3-yl-oxymethyl)-pyrrolidine-1-sulfonyl)-1H-indole-2,3-dione]: the IC50 in test [4] (setting [13]) is 5.2 ± 1.6 nM; in test [2] (setting [17]), over 50000 nM; in test [5] (setting [14]), over 5000 nM; in test [3] (setting [15]), over 10000 nM; in test [1] (setting [16]), 14.1 ± 3.4 nM.

Take `CSc1ccc(CN2C(=O)C(=O)c3cc(S(=O)(=O)N4CCCC4COc4cccnc4)ccc32)cc1` (stereo not drawn) [Compound 21d, 1-(4-Methylthiobenzyl)-5-(2-(pyridin-3-yl-oxymethyl)-pyrrolidine-1-sulfonyl)-1H-indole-2,3-dione]: the IC50 in test [4] (setting [13]) was 4.4 ± 1.4 nM; in test [2] (setting [17]), over 50000 nM; in test [5] (setting [14]), over 5000 nM; in test [3] (setting [15]), over 50000 nM; in test [1] (setting [16]), 23.3 ± 0.7 nM.

Consider `O=C1C(=O)N(Cc2ccc(F)cc2)c2ccc(S(=O)(=O)N3CCCC3COc3cccnc3)cc21` (stereo not drawn) [Compound 21e, 1-(4-Fluorobenzyl)-5-(2-(pyridin-3-yl-oxymethyl)-pyrrolidine-1-sulfonyl)-1H-indole-2,3-dione], for which the IC50 in test [4] (setting [13]) is 8.4 ± 2 nM; in test [2] (setting [17]), over 50000 nM; in test [5] (setting [14]), over 5000 nM; in test [3] (setting [15]), over 10000 nM; in test [1] (setting [16]) it was 15.1 ± 0.1 nM.

Consider `O=C1Nc2ccc(S(=O)(=O)N3CCCC3COc3ccncc3)cc2C1=O` (stereo not drawn) [Compound 23, 5-(2-(Pyridin-4-yl-oxymethyl)-pyrrolidine-1-sulfonyl)-1H-indole-2,3-dione], for which the IC50 in test [4] (setting [13]) was 20.4 ± 1.7 nM; in test [2] (setting [17]), over 50000 nM; in test [5] (setting [14]) it was over 5000 nM; in test [3] (setting [15]), over 5000 nM; in test [1] (setting [16]), 142 ± 22.6 nM.

On to `O=C1C(=O)N(Cc2ccc(Br)cc2)c2ccc(S(=O)(=O)N3CCCC3COc3ccccc3)cc21` (stereo not drawn) [Compound 25d, 1-(4-Bromo-benzyl)-5-(2-Phenoxymethyl-pyrrolidine-1-sulfonyl)-1H-indole-2,3-dione], for which the IC50 in test [4] (IC50 (nM) Casp-3, Table 7) was 9.85 ± 0.9 nM; in test [4] (IC50 (nM) Caspase 3, Table 1), 9.9 ± 0.9 nM; in test [2] (setting [7]), over 50000 nM; in test [2] (setting [18]) it was over 50000 nM; in test [5] it was 8900 nM; in test [3] (setting [9]), over 15000 nM. Also, the IC50 in test [3] (setting [19]) is over 15000 nM; in test [1] (IC50 (nM) Casp-7, Table 7) it was 34.8 ± 1.4 nM; in test [1] (IC50 (nM) Caspase 7, Table 1) it was 34.8 ± 1.4 nM.

For the compound `N#CC(C#N)=C1C(=O)Nc2ccc(S(=O)(=O)N3CCCC3COc3ccccc3)cc21` (stereo not drawn) [Compound 26, 2-[2-Oxo-5-(2-phenoxymethyl-pyrrolidine-1-sulfonyl)-1,2-dihydro-indol-3-yl-idene]-malononitrile], the IC50 in test [4] (setting [20]) was 272 ± 25 nM; in test [4] (Table 7, read-out: IC50 (nM) Casp-3), 272 ± 24.7 nM; in test [4] (read-out: IC50 for caspase-3), 272 nM; in test [2] (setting [8]) it was over 50000 nM; in test [2] (setting [18]), over 50000 nM; in test [5] (Table 2, read-out: IC50 (nM) Caspase 6), 407 ± 15 nM. In addition, the IC50 in test [5] (Table 7, read-out: IC50 (nM) Casp-6) amounted to 407 ± 15 nM; in test [3] (setting [10]) it was 1830 nM; in test [3] (setting [19]), 1830 ± 128 nM; in test [1] (setting [6]) it was 1580 nM; in test [1] (Table 7, read-out: IC50 (nM) Casp-7), 1580 ± 163 nM; in test [1] (read-out: IC50 for caspase-7), 1580 nM.

As to `O=C1C(=O)N(Cc2ccc(Br)cc2)c2ccc(S(=O)(=O)N3CCCC3COc3cccnc3)cc21` (stereo not drawn) [Compound 28c, 1-(4-Bromo-benzyl)-5-[2-(pyridin-3-yl-oxymethyl)-pyrrolidine-1-sulfonyl]-1H-indole-2,3-dione], the half-inhibitory concentration (IC50) in test [4] (IC50 (nM) Casp-3, Table 7) is 3.6 ± 0.5 nM; in test [4] (IC50 (nM) Caspase 3, Table 1) it was 3.6 ± 0.5 nM; in test [2] (setting [7]), over 50000 nM; in test [2] (setting [18]), over 50000 nM; in test [3] (setting [9]), over 15000 nM; in test [3] (setting [19]), over 15000 nM. Also, the IC50 was determined as 6.6 ± 0.1 nM in test [1] (IC50 (nM) Casp-7, Table 7) and 6.6 ± 0.1 nM in test [1] (IC50 (nM) Caspase 7, Table 1).

`O=C1Nc2ccc(S(=O)(=O)N3CCC[C@H]3COc3ccccc3)cc2C1=NO` [WC(II)-51]: in test [4], the “potency as caspase-3/7 inhibitors (in words)” value is “low potency”.

On to `O=C1C(=O)N(Cc2ccc(OCCF)cc2)c2ccc(S(=O)(=O)N3CCCC3COc3ccccc3)cc21` (stereo not drawn) [WC-II-89, 1-[4-(2-Fluoroethoxy)-benzyl]-5-(2-phenoxymethyl-pyrrolidine-1-sulfonyl)-1H-indole-2,3-dione], for which the IC50 is 9.7 ± 1.3 nM in test [4] (Table 1, read-out: IC50 (nM) Caspase 3); over 50000 nM in test [2] (setting [7]); 3720 nM in test [5] (Table 1, read-out: IC50 (nM) Caspase 6); over 15000 nM in test [3] (setting [9]).

For the compound `COc1ccc(CN2C(=O)C(=CC#N)c3cc(S(=O)(=O)N4CCC[C@H]4COc4ccccc4)ccc32)cc1` [WC-II-99], the IC50 in test [4] (setting [20]) is over 1000 nM. Moreover, the “potency as caspase-3/7 inhibitors (in words)” value in test [4] is reported as “low potency”.
